# Laboratory results taken from patent US20130317034A1, “COMBINATION THERAPY FOR TREATING DIABETES” (Japan Tobacco Inc., priority 2010, published 2013).
# Key:
# [1] = Food consumption, body weight gain and body weight in rats fed a high fat diet; assay type: in vivo; conditions: Mean ± S.E. (n = 8)
# Procedure: Forty-four eight week old male rats (Charles River Laboratories Japan, Inc.) were used for the experiment. Body weights and food weight were measured six days before and on the day before the dosing of the compound of formula (I). Body weight gain and food consumption were calculated for this period. Animals were fasted for 24 hours the day before dosing with the compound of formula (I). Using the body weights on the day of the dosing, body weight gain and food consumption as indicators, 32 rats were selected from those closest to the mean values. The rats were assigned to four groups (control, compound of formula (I) only, DPP-IV inhibitor only, and combination of compound of formula (I) and DPP-IV inhibitor) with eight animals in each group. One-way analysis of variance was performed using SAS Preclinical Package Version 5.0 and SAS System Version 8.2 (SAS Institute Japan Co., Ltd.) to verify that no significant intergroup differences were present after group allocation.
# (§1) After the rats were fasted for 24 hours, either the compound of formula (I) (30 mg/kg) or vehicle (0.5% MC) was dosed orally. The rats were immediately fed with a high-fat diet for six hours and fasted overnight. Glucose tolerance tests (GTTs) were performed 30 minutes after dosing either sitagliptin or vehicle (0.5% MC). Dosing for each group is described in Tables 1 and 2 below.
# Food consumption was calculated according to the following formula: food consumption (g)=food weight before feeding (g)−food weight after feeding (g). Body weight gain was calculated according the following formula: body weight gain (g)=body weight after feeding (g)-body weight before feeding (g). There were no significant differences between the groups in food consumption and body weight gain for six hours after dosing, and in body weight at the start of GTT (Table 3).
# rats fed a high fat diet [2] = assay: Glucose tolerance test (GTT): plasma insulin levels; assay type: in vivo
# Procedure: (§2) This example studied the combined effects of the compound of formula (I) and sitagliptin, i.e., a DPP-IV inhibitor, on plasma GLP-1 levels and glucose tolerance as evaluated in rats fed a high fat diet.
# as §1
# (§3) At the start of the GTT, blood was collected to measure plasma GLP-1. The plasma glucose and insulin concentrations were measured before and after loading with the glucose solution. For the preparation of the glucose solution, glucose was diluted in saline at a concentration of 0.4 g/mL.
# (§4) For the GTT, the rats were fasted overnight after six hours feeding. On the following day, 600-700 μL of blood were collected from the tail vein into tubes containing a DPP-IV inhibitor, aprotinin, and EDTA. Thereafter, a glucose solution at a dose of 1 g/2.5 mL/kg was loaded intraperitoneally. At 10, 30, 60, and 120 minutes after loading the glucose solution, 200-300 μL of blood were collected from the tail vein into tubes containing heparin. The blood was centrifuged at 10,000×g and 4° C. for five minutes to obtain the plasma.
# plasma GLP-1 = assay: Plasma GLP-1 level at the start of the GTT (GLP-1 (Active) ELISA); assay type: in vivo, rats
# Procedure: as §2, §1, §3
# For the GTT, the rats were fasted overnight after six hours feeding. On the following day, 600-700 μL of blood were collected from the tail vein into tubes containing a DPP-IV inhibitor, aprotinin, and EDTA. Thereafter, a glucose solution at a dose of 1 g/2.5 mL/kg was loaded intraperitoneally. […]
# After 200 μL of plasma sampled before the glucose loading were added with […] of ethanol, the solution was thoroughly mixed. […] The GLP-1 concentration was measured by the ELISA method using a GLP-1 (Active) ELISA kit.
# rats fed a high fat diet [3] = assay: Glucose tolerance test (GTT): plasma glucose levels; assay type: in vivo
# Procedure: as §2, §1, §3, §4
# [4] = six hours high-fat feeding after dosing, compound of formula (I) 30 mg/kg PO
# [5] = 0 min after glucose loading (1 g/kg ip), compound of formula (I) 30 mg/kg PO, sitagliptin 10 mg/kg PO
smiles,measurement,setting,value
N[C@@H](CC(=O)N1CCn2c(nnc2C(F)(F)F)C1)Cc1cc(F)c(F)cc1F [sitagliptin],Body Weight,[1]; before GTT,352.7 ± 6.9 g
same,Body Weight Gain,[1]; [4],15.5 ± 1.2 g
same,Food Consumption,[1]; [4],15.2 ± 1.3 g
same,Plasma Insulin Level,rats fed a high fat diet [2]; [5],2.350 ± 0.439 ng/mL
same,Plasma Insulin Level,rats fed a high fat diet [2]; 10 min after glucose loading,4.968 ± 0.562 ng/mL
same,Plasma Insulin Level,rats fed a high fat diet [2]; 30 min after glucose loading,4.595 ± 0.675 ng/mL
same,Plasma Insulin Level,rats fed a high fat diet [2]; 60 min after glucose loading,3.253 ± 0.749 ng/mL
same,Plasma Insulin Level,rats fed a high fat diet [2]; 120 min after glucose loading,3.046 ± 0.435 ng/mL
same,AUC of Plasma Insulin Level,"rats fed a high fat diet [2]; during the GTT, 0-120 min",438.898 ± 72.779 ng·min/mL
same,"Plasma insulin levels during the GTT, in words",rats fed a high fat diet [2]; versus control group,higher
same,Plasma GLP-1 Level,"plasma GLP-1; at the start of the GTT, compound of formula (I) 30 mg/kg PO day before, sitagliptin 10 mg/kg PO 30 min before GTT, Mean ± S.E. (n = 8)",1.800 ± 0.270 pmol/L
same,"Plasma GLP-1 levels prior to glucose loading, in words",plasma GLP-1; versus control group,significantly higher
same,Plasma Glucose Level,rats fed a high fat diet [3]; [5],149 ± 6 mg/dL
same,Plasma Glucose Level,rats fed a high fat diet [3]; 10 min after glucose loading,264 ± 16 mg/dL
same,Plasma Glucose Level,rats fed a high fat diet [3]; 30 min after glucose loading,255 ± 12 mg/dL
same,Plasma Glucose Level,rats fed a high fat diet [3]; 60 min after glucose loading,185 ± 8 mg/dL
same,Plasma Glucose Level,rats fed a high fat diet [3]; 120 min after glucose loading,157 ± 5 mg/dL
same,"Plasma glucose levels in the GTT, in words","rats fed a high fat diet [3]; at 60 minutes after glucose loading, versus control group",significantly decreased
same,AUC of Plasma Glucose Level,"rats fed a high fat diet [3]; during the GTT, 0-120 min",24095 ± 981 mg·min/dL
same,"AUC for the glucose levels during the GTT, in words",rats fed a high fat diet [3]; versus control group,"lower than that for the control group, although there were no statistically significant differences"
